# Paper PMC12040169 (PLOS Biology, 2025)
# Assay: in vitro
# Details: human, hela cells, % viability
row,Compound,"viability at 28.5 h, 10 µM"
1,O=C(O)c1ccc(NC(CC(=O)c2ccccc2)c2ccc(Br)cc2)cc1 (centres unmarked) [CBK266195C],109%
2,Cc1cc(C(C)(C)C)cc(S(=O)(=O)Nc2ccc(O)c(C(=O)O)c2)c1C [CBK266196],101%
3,Cc1ccc(C2C=C(c3ccccc3)Nc3nc(N4C(=O)CCC4=O)nn32)cc1 (centres unmarked) [CBK266197],98.6%
4,Cc1cc(C(F)F)n2nc(C(=O)Nc3cccc(S(=O)(=O)N4CCOCC4)c3)nc2n1 [CBK266198],101%
5,CCC(SC1=NCCS1)C(=O)Nc1ccc(NC(C)=O)cc1 (centres unmarked) [CBK266199],97.4%
6,CC(CCc1ccccc1)NC(=O)CC1COc2ccccc2O1 (centres unmarked) [CBK266203],103%
7,O=C(CSc1nnc(-c2ccncc2)n1-c1ccc(Cl)cc1)Nc1ccccc1-c1ccccc1 [CBK266205],104%
8,Cn1ccnc1CN1CCN(Cc2nccn2C)CC1 [CBK266206C],98.7%
9,COc1nnc(-c2ccc(N3CCOCC3)c(NC(=O)COc3cccc(C)c3)c2)c2ccccc12 [CBK266207],81.9%
10,COc1ccc(C=O)cc1CSc1nc2ccccc2[nH]1 [CBK266209],94.7%
11,CC(C)C1CC(CCNCc2ccc(N(C)C)cc2)(c2ccccc2)CCO1 (centres unmarked) [CBK266210],98.9%
12,CC(=O)Nc1c(O)nc(SCC(=O)Nc2ccc(Cl)cc2)[nH]c1=O [CBK266214],106%
13,O=C(O)C(Cc1cc2ccccc2[nH]1)N1C(=O)C2CC=C(Cl)CC2C1=O (centres unmarked) [CBK266216],94.2%
14,CC(C)c1ccc(S(=O)(=O)NC(CC(=O)O)c2ccccc2)cc1 (centres unmarked) [CBK266217],102%
15,O=C(CSc1nnc(SCc2cccc3ccccc23)s1)c1ccc(F)cc1 [CBK266218],98.9%
16,CCOc1ccc(-n2c(SC/C=C/c3ccccc3)nnc2-c2cccnc2)cc1 [CBK266222],106%
17,Cc1cc2nc(SCCNC(=O)c3ccc(Cl)cc3)nc(C)c2cc1C [CBK266223],93.3%
18,O=C(COc1ccc2oc3c(c2c1)CCCC3)Nc1ccncc1 [CBK266227],100%
19,COc1ccc(-c2nn(C)c(=O)c3ccccc23)cc1CNC(=O)c1cc([N+](=O)[O-])ccc1OC [CBK266229],116%
20,Clc1ccc(Cn2ncc3c(NCCN4CCOCC4)ncnc32)cc1 [CBK266230],105%
21,NS(=O)(=O)c1ccc(NC(=O)CN2CCN(c3ccc([N+](=O)[O-])cc3)CC2)cc1 [CBK266232],96.8%

row,Compound,"viability at 28.5 h, 10 µM"
1,Cc1ccc([N+](=O)[O-])cc1S(=O)(=O)NCC(=O)O [CBK266234],94.7%
2,COc1ccc(-c2cc(C(F)(F)F)nc(S(=O)(=O)CCC(=O)Nc3ccc(C)cc3)n2)cc1 [CBK266235],105%
3,CC1Cc2cc(C(=O)C3=C(O)C(=O)N(Cc4ccco4)C3c3cccnc3)ccc2O1 (centres unmarked) [CBK266236],104%
4,O=C(CSc1nc(-c2ccco2)cc(C(F)(F)F)n1)Nc1ccc(C(=O)N2CCCCC2)cc1 [CBK266238],101%
5,Cc1ccc(S(=O)(=O)N2CCN(CC(O)COc3ccc4ccccc4c3)CC2)cc1 (centres unmarked) [CBK266239],97.7%
6,Cc1nnc(S)n1CC(=O)n1c2c(c3ccccc31)CCCC2 [CBK266244],106%
7,O=C(Nc1ccc(I)cc1C(=O)NCCN1CCOCC1)c1ccccc1Cl [CBK266245],101%
8,Cc1cc(NC(=O)CSc2nc(-c3ccc(F)cc3)cc(C(F)(F)F)n2)n(-c2ccccc2)n1 [CBK266248],102%
9,COc1cc(NC(=S)N2CCN(c3cc(Cl)ccc3C)CC2)cc(OC)c1 [CBK266252],100%
10,CNC1(c2nnnn2CCOC(=O)Nc2ccc(Cl)cc2)CCCC1 [CBK266253],102%
11,CN1CCN(c2ccc(NC(=S)NC(=O)c3cc(Br)ccc3Cl)cc2)CC1 [CBK266254C],96.2%
12,Brc1ccc(-n2c(SC/C=C/c3ccccc3)nnc2-c2ccncc2)cc1 [CBK266257],105%
13,CC1CCN(Cc2c(O)ccc3c(=O)c(-c4cccc(Cl)c4)c(C(F)(F)F)oc23)CC1 [CBK266258],103%
14,Cc1ccc(C(=O)N2CCN(S(=O)(=O)c3cccc([N+](=O)[O-])c3)CC2)cc1 [CBK266259],102%
15,Cc1ccc(S(=O)(=O)NC(C)C(=O)Nc2ccc(C)c(Cl)c2)cc1 (centres unmarked) [CBK266263],98%
16,Cn1c(SCC(=O)N2CCN(c3cccc(Cl)c3)CC2)nnc1-c1cccc([N+](=O)[O-])c1 [CBK266264],97.8%
17,CN1CCN(C(=O)c2ccccc2N(Cc2ccccc2)S(C)(=O)=O)CC1 [CBK266267],101%
18,CC(=O)Nc1ccccc1-c1nc2ccccc2nc1OCC(=O)c1ccc(Cl)cc1 [CBK266269],93.6%
19,O=C(Nc1cc2nn(-c3ccccc3)nc2cc1Cl)c1ccc(-c2cccc([N+](=O)[O-])c2)o1 [CBK266271],94%
20,Cc1sc(NC(=S)NC(=O)c2ccco2)c(C(N)=O)c1C [CBK266272],98.9%
21,O=C(Nc1cccc(C(F)(F)F)c1)c1ccc(N2CCNCC2)c([N+](=O)[O-])c1 [CBK266274],100%

row,Compound,"viability at 28.5 h, 10 µM"
1,COc1ccc(Cl)cc1C(=O)O/N=C(\N)Cc1cccc2ccccc12 [CBK266275],98.3%
2,O=C(CSc1nnc(CCc2ccccc2)n1-c1ccc(Cl)cc1)c1ccccc1 [CBK266277],88.9%
3,O=C(Nc1ccccc1-c1nc2ccccc2s1)c1cc(Br)ccc1Cl [CBK266280],94.9%
4,Cc1ccc2oc(C(=O)Nc3sc4c(c3C(=O)NCC3CCCO3)CCC4)c(C)c2c1 (centres unmarked) [CBK266282],111%
5,Cc1nc(S)nc(O)c1Cc1ccc(C(=O)O)o1 [CBK266284],104%
6,Cc1nnc(N2C(=O)c3oc4ccccc4c(=O)c3C2c2ccc(OCc3ccccc3)cc2)s1 (centres unmarked) [CBK266287],94.9%
7,N#C/C(=C\c1ccc(-c2ccc(S(N)(=O)=O)cc2)o1)c1nc2ncc(Br)cc2[nH]1 [CBK266288],97.6%
8,CCn1c(SCC(=O)N2c3ccccc3Sc3ccccc32)nnc1C(C)Oc1ccccc1 (centres unmarked) [CBK266290],105%
9,c1csc(CSc2nnc3sc4ccccc4n23)c1 [CBK266291],87.9%
10,N#C/C(=C\c1ccc(N2CCOCC2)cc1)c1nc2ncc(Br)cc2[nH]1 [CBK266294],89.4%
11,N#C/C(=C\c1cn(-c2ccccc2)nc1-c1cccc(S(=O)(=O)N2CCCC2)c1)c1nc2ccccc2c(=O)[nH]1 [CBK266296],91.9%
12,Cc1cccc(OCC(=O)NC(=S)Nc2ccccc2N2CCCCC2)c1C [CBK266298],105%
13,CC(Oc1ccccc1)c1nnc(SCC(=O)Nc2ccc(Br)c(Cl)c2)n1C (centres unmarked) [CBK266299],113%
14,Cc1nnc(SCc2nnnn2-c2ccccc2)nc1O [CBK266302],101%
15,COc1nc(NCCc2ccc(OC)c(OC)c2)nc(OC)n1 [CBK266304],94.4%
16,Cc1cc2oc(C(=O)Nc3nc(-c4ccc(S(=O)(=O)N5CCCC5)cc4)cs3)c(C)c2cc1C [CBK266309],89.5%
17,Cc1ccc(S(=O)(=O)N2Cc3ccccc3CC2C(=O)Nc2sc3c(c2C#N)CCCC3)cc1 (centres unmarked) [CBK266313],97.9%
18,CC1CCN(S(=O)(=O)c2ccc3c(c2)oc(=O)c2cc(S(=O)(=O)N4CCC(C)CC4)ccc23)CC1 [CBK266314],100%
19,COc1cc(C(=O)N(Cc2ccco2)c2ccc(O)cc2)cc(OC)c1OC [CBK266315],102%
20,COc1cccc(C(=O)Nc2ccc(NC(=O)C3CC=CCC3C(=O)O)cc2)c1 (centres unmarked) [CBK266316],107%
21,Cc1cc(C)nc(NC(=N)NCCc2c[nH]c3ccccc23)n1 [CBK266321],70.2%

row,Compound,"viability at 28.5 h, 10 µM"
1,CCOc1ccccc1Cn1c2ccccc2c2nc3ccccc3nc21 [CBK266323],101%
2,COC(=O)c1ccccc1NC(=O)CSc1nnc(-c2ccncc2)[nH]1 [CBK266324],96.4%
3,O=C(CSc1nnc(-c2cccnc2)o1)c1ccc(Oc2ccccc2)cc1 [CBK266327],88.1%
4,OCCCNC(c1ccccc1)c1ccc(O)cc1 (centres unmarked) [CBK266329],97.2%
5,O=C(NCC1CCCO1)c1ccc(NC(=O)C2CC=CCC2C(=O)O)cc1 (centres unmarked) [CBK266335],95%
6,N=c1n(CCN2CCCCC2)c2ccccc2n1CC(O)COc1ccc(Cl)cc1Cl (centres unmarked) [CBK266336C],31%
7,COC(=O)c1ccccc1NC(=O)CSc1nnc(-c2ccccc2)[nH]1 [CBK266338],96.7%
8,Cc1[nH]c2ccccc2c1C(=O)CSc1nc2ccccc2o1 [CBK266339],100%
9,O=C(CSc1ncccc1C(=O)O)Nc1ccc(Oc2ccccc2)cc1 [CBK266340],106%
10,CCOc1ccc(S(=O)(=O)N2CCN(S(=O)(=O)c3cccc([N+](=O)[O-])c3)CC2)cc1 [CBK266341],95.9%
11,O=[N+]([O-])c1ccc(NCCNc2nc3ccccc3nc2N2CCOCC2)cc1 [CBK266342],107%
12,COc1ccc2c(c1)c(=O)oc1cc(OCC(=O)N3CCc4ccccc4C3)ccc12 [CBK266346],110%
13,Cc1ccnc(SCC(=O)Nc2sc3c(c2C(=O)Nc2ccccc2)CCCC3)n1 [CBK266348],106%
14,CC(=O)Nc1ccc(C(=O)CSc2nnc(-c3ccncc3)o2)cc1 [CBK266349],105%
15,Cc1ccc(S(=O)(=O)NC(C)(C)CSc2nnc(N)s2)cc1 [CBK266350],97.1%
16,Cc1cc2oc(C(=O)Nc3sc4c(c3C(=O)NC3CCS(=O)(=O)C3)CCC(C)C4)c(C)c2cc1C (centres unmarked) [CBK266351],92.2%
17,O=C(O)c1ccc(CSc2nnc(-c3ccncc3)o2)cc1 [CBK266352],98.5%
18,O=C(NC1=NC2CCCCC2N1)c1ccccc1 (centres unmarked) [CBK266354],103%

# Same assay, conditions: human, hela cells, % viability, bulk resorufin, single well
row,Compound,"viability at 28.5 h, 10 µM"
1,Cc1ccccc1N1C(=O)NC(=O)C(CCc2ccncc2)(Cc2ccc3c(c2)OCO3)C1=O (centres unmarked) [CBK266289],92%
2,O=C1NC(=O)C(CCc2ccncc2)(Cc2ccc3c(c2)OCO3)C(=O)N1CCc1ccccc1 (centres unmarked) [CBK266307],105%
